According to patent US7074768B2, “Modified protein kinase A-specific oligonucleotides and methods of their use” (Idera Pharmaceuticals, Inc., priority 1995, dated 2006):

Assays:
[1] = tested on: OVCAR-3 ovarian cancer cells; experiment: Soft agar growth of OVCAR-3 cells; type: cell-based, human
Protocol: Cell lines. OVCAR human ovarian cancer cells were purchased from American Type Culture Collection (Rockville, Md., USA). Cells were maintained in DMEM and HAM'S F-12 (1:1) supplemented with 10% heat-inactivated FBS, 20 mM HEPES, pH 7.4, penicillin (100 UI/ml), streptomycin (100 μg/ml) and 4 mM glutamine (ICN, Irvine, UK) in a humified atmosphere of 95% air and 5% CO2 at 37° C.
Soft agar growth. Cells (10^4 cells/well) were seeded in 0.5 ml of 0.3% Difco Noble agar (Difco, Detroit, Mich.) supplemented with complete culture medium. This suspension was layered over 0.5 ml of 0.8% agar-medium base layer in 24 multiwell cluster dishes (Becton Dickinson) and treated with various concentrations of HYB 165 or HYB295 every 48 hours for three times. After 12 days the cells were stained with nitroblue tetrazolium (Sigma, St. Louis, Mo.) and colonies larger than 0.05 mm were counted.

[2] = tested on: GEO human colon cancer cells; experiment: Soft agar growth of GEO cells; type: cell-based
Protocol: Cells (10^4 cells/well) were seeded in 0.5 ml of 0.3% Difco Noble agar (Difco, Detroit, Mich.) supplemented with complete culture medium. This suspension was layered over 0.5 ml of 0.8% agar-medium base layer in 24 multiwell cluster dishes (Becton Dickinson) and treated with various concentrations of paclitaxel (day 0). The HYB 165 was added after 12 hrs (day 1) and on day 2, 3 and 4. 12 days after the last treatment, cells were stained with nitroblue tetrazolium (Sigma) and colonies larger than 0.05 mm were counted.

[3] = tested on: 1A9PTX22 human ovarian cancer cells; experiment: Soft agar growth of 1A9PTX22 cells; type: cell-based
Protocol: (§1) Cell lines. The 1A9PTX22 cell line, a paclitaxel (PTX)-resistant clone of the human ovarian carcinoma cell line 1A9, was isolated by exposing 1A9 cells to 5 ng/ml PTX in the presence of 5 μg/ml verapamil, a P glicoprotein antagonist. 1A9PTX22 cells were kindly provided by Dr. Giannakakou, NCI Bethesda, Md., USA. Cells were maintained in RPMI medium supplemented with 10% heat-inactivated FBS, 20 mM HEPES, pH 7.4 penicillin (100 UI/ml), streptomycin (100 μg/ml) and 4 mM glutamine (ICN, Irvine, UK) 15 ng/ml PIX and 5 μg/ml verapamil in a humified atmosphere of 95% air and 5% CO2 at 37° C. 7 days before experiments were performed, PTX and verapamil were removed from culture medium.
Soft agar growth. Cells (10^4 cells/well) were seeded in 0.5 ml of 0.3% Difco Noble agar (Difco, Detroit, Mich.) supplemented with complete culture medium. This suspension was layered over 0.5 ml of 0.8% agar-medium base layer in 24 multiwell cluster dishes (Becton Dickinson) and treated with various concentrations of HYB 165 or HYB508 every […] for three times. After 12 days the cells were stained with nitroblue tetrazolium (Sigma, St. Louis, Mo.) and colonies larger than 0.05 mm were counted.

[4] = tested on: RIα protein; experiment: Histochemical analysis of GEO tumors: RIα; type: in vivo, human
Text: (§2) Tumor specimens from the different groups of mice were examined by histochemical analysis at different time points to evaluate the expression of a variety of biological parameters. […] No other treatment was able to affect RIα expression.

[5] = tested on: p27; experiment: Histochemical analysis of GEO tumors: p27; type: in vivo
Text: as §2
Loda et al. (Nature Medicine 3:231–234 (1997)) discloses that the cyclin-dependent kinase (CDK) inhibitor p27 is […] related to cell entry into S phase and proliferation and that reduction of its expression correlates with poor prognosis in colon cancer patients.

[6] = tested on: TGFα; experiment: Histochemical analysis of GEO tumors: TGFα; type: in vivo; conditions: single agent, after two cycles
Text: Tumor specimens from the different groups of mice were examined by histochemical analysis at different time points to evaluate the expression of a variety of biological parameters.
TGFα and AR are growth factors which bind to EGFR and control human colon cancer growth through autocrine and paracrine mechanisms (F. Ciardiello and G. Tortora, Clin. Cancer Res. 4:821–828 (1998); D. S. Salomon, Crit. Rev. Oncol. Hematol. 19:183–232 (1995)).

[7] = tested on: Factor VIII related antigen; experiment: Tumor-induced neovascularization (anti-Factor VIII related antigen immunohistochemistry); type: in vivo
Text: In recent years, the critical role of tumor-induced neovascularization in neoplastic development, progression and metastasis has been elucidated (J. I. Fokman, In: J. Mendelsohn et al., eds., The Molecular Basis of Cancer, pp 206–232, Philadelphia: W B Saunders (1995) . A reliable histologic estimate of novel blood vessels on tumor specimens is the microvessel count (MVC) in the most intense areas of neovascularization. In the present study, tumor-induced neovascularization was quantified by immunohistochemistry using an anti-Factor VIII related antigen monoclonal antibody (N. Weidner, Breast Cancer Res. Treat., 36:169–180 (1995)).

[8] = tested on: 1A9PTX10 human ovarian cancer cells; experiment: Soft agar growth of 1A9PTX10 cells; type: cell-based
Protocol: as §1, with “1A9PTX10” for “1A9PTX22”, “7.4,” for “7.4”, “PTX” for “PIX”
Soft agar growth. Cells (10^4 cells/well) were seeded in 0.5 ml of 0.3% Difco Noble agar (Difco, Detroit, Mich.) supplemented with complete culture medium. This suspension was layered over 0.5 ml of 0.8% agar-medium base layer in 24 multiwell cluster dishes (Becton Dickinson) and treated with various concentrations of HYB 165 or HYB508 every 48 hours for three times. After 12 days the cells were stained with nitroblue tetrazolium (Sigma, St. Louis, Mo.) and colonies larger than 0.05 mm were counted.

HYB 165: Hybrid 18-mer mixed backbone antisense to PKA RIα, GCGUGCCTCCTCACUGGC (SEQ ID NO:4), 2-O-methyl ribonucleotides at 5′ and 3′ ends (sugars by position and backbone not given here; 2'-O-methyl ribonucleotides at both ends, mixed backbone)
inhibition of cell growth ([1]; 0.1 μM): approximately 25% | inhibition of cell growth ([1]; 0.5 μM): about 58% | inhibition of cell growth ([1]; 1 μM): about 75% | inhibition of cell growth ([1]; 2.5 μM): about 95% | growth inhibition ([2]; HYB 165 0.5 μM after paclitaxel 1 nM): 40% | growth inhibition ([2]; HYB 165 0.5 μM after paclitaxel 5 nM): 62% | growth inhibition ([2]; HYB 165 0.5 μM after paclitaxel 10 nM): 86% | growth inhibition ([2]; HYB 165 0.5 μM alone): about 20% | cooperative effect of the combination ([2]; HYB 165 0.5 μM, sequential combination with different doses of paclitaxel): cooperatively inhibit the growth of GEO cells | inhibition of cell growth ([3]; 0.1 μM): approximately 5% | inhibition of cell growth ([3]; 0.5 μM): about 50% | inhibition of cell growth ([3]; 1 μM): about 82% | inhibition of cell growth ([3]; 2.5 μM): over 95% | expression of RIα protein in the tumor ([4]; in combination with taxol, after two cycles): further increased | expression of RIα protein in the tumor ([4]; single agent, after two cycles of treatment, FIG. 18): inhited expression of the target RIα protein in the tumor | p27 expression ([5]; single agent): able to increase p27 expression | increase in intensely positive cell staining for p27 ([5]; taxol and antisense RIα in combination): 2.5 fold | expression of TGFα [6]: inhibited the expression of TGF α and AR | vessel formation ([7]; combined treatment with taxol and HYB 165): completely suppressed vessel formation in GEO tumors | inhibition of staining (microvessel count) ([7]; single agent, vs untreated mice or scramble MBO): about 80% | inhibition of cell growth ([8]; 0.1 μM): approximately 5% | inhibition of cell growth ([8]; 0.5 μM): about 43% | inhibition of cell growth ([8]; 1 μM): about 70% | inhibition of cell growth ([8]; 2.5 μM): over 85%
